Counter-ions that a name gives are not always drawn.
Key:
Assay type in all cases: cell-based, human
imDAPs [1] = experiment: qRT-PCR analysis of imDAP-specific markers in expanded imDAPs; conditions: Example 3; 3 μM CHIR99021 (vs 0, 1.25 μM) during expansion; 5 days; FIG. 1C
Description: • 1. Individualize and collect cells by either Accutase or TrypLE treatment. • 2. Wash cells with 1 ml PBS and pellet cells at 250×g for 15 sec. • 3. Remove supernatant, add ˜200 μl of 4% PFA, mix and fix for 10 min at RT. • 4. Pellet cells at 350×g for 5 min. • 5. Wash cells by 1 ml of FACS buffer and pellet cells at 350×g for 5 min. • 6. Remove supernatant, add 200 μl/tube of FACS buffer/0.1% TritonX, mix for 10 min at RT. • 7. Wash cells by 1 ml of FACS buffer and pellet cells at 350×g for 5 min. • 8. Remove supernatant, add 200 μl/tube of primary antibody diluted in FACS buffer, mix gently, and incubate for 30 min at RT. • 9. Wash cells by 1 ml of FACS buffer and pellet cells at 350×g for 5 min. • 10. Remove supernatant, and add 200 μl of secondary antibody diluted in FACS buffer, mix gently, and incubate for 30 min at RT. • 11. Wash cells by 1 ml of FACS buffer and pellet cells at 300×g for 5 min. • 12. Remove supernatant, add 200 μl of FACS buffer, and run samples on the flow cytometry. (2) qRT-PCR • 1. For qRT-PCR analysis of mRNA gene expression, RNA should be harvested from at least 2×10^6 cells. • 2. […] Analyze the samples by running a quantitative PCR on the LightCycler 480 instrument using a 40× cycle two-step protocol with a 60° C., 60 sec annealing/elongation step and a 95° C., 30 sec denaturation step. […]

imDAPs [2] = experiment: Flow cytometry (FACS) analysis of FOXA2 expression in expanded imDAPs; conditions: Example 6
Description: • 1. Individualize and collect cells by either Accutase or TrypLE treatment. • 2. Wash cells with 1 ml PBS and pellet cells at 250×g for 15 sec. • 3. Remove supernatant, add ˜200 μl of 4% PFA, mix and fix for 10 min at RT. • 4. Pellet cells at 350×g for 5 min. • 5. Wash cells by 1 ml of FACS buffer and pellet cells at 350×g for 5 min. • 6. Remove supernatant, add 200 μl/tube of FACS buffer/0.1% TritonX, mix for 10 min at RT. • 7. Wash cells by 1 ml of FACS buffer and pellet cells at 350×g for 5 min. • 8. Remove supernatant, add 200 μl/tube of primary antibody diluted in FACS buffer, mix gently, and incubate for 30 min at RT. • 9. Wash cells by 1 ml of FACS buffer and pellet cells at 350×g for 5 min. • 10. Remove supernatant, and add 200 μl of secondary antibody diluted in FACS buffer, mix gently, and incubate for 30 min at RT. • 11. Wash cells by 1 ml of FACS buffer and pellet cells at 300×g for 5 min. • 12. Remove supernatant, add 200 μl of FACS buffer, and run samples on the flow cytometry. (2) qRT-PCR • 1. For qRT-PCR analysis of mRNA gene expression, RNA should be harvested from at least 2×10^6 cells. • 2. Harvest cells, add 350 μl of buffer RLT+1% (vol/vol) s-mercaptoethanol to the well, transfer the lysate to a 1.5 ml tube, and put it immediately on ice. • 3. Perform RNA extraction using the Tiangen Kit (DP430), and follow the manufacturer's protocol ‘Purification of total RNA from animal and human cells’. • 4. When the RNA extraction was completed, determine the RNA concentration using a Nanodrop instrument. • 5. Perform the first-strand cDNA synthesis reaction with 1 μg of RNA using the HiScript TM II Q RT SuperMIX for qPCR(+gDNA wiper) Kit (Vazyme, #R223-01) for RT-qPCR. Follow the manufacturer's ‘First-Strand cDNA Synthesis’ protocol. This reaction would yield a 20 μl product. • 6. Dilute the 10 μl cDNA product in 80 μl of nuclease-free water. • 7. Pipette the diluted cDNA product (1 μl), Sybr green master mix (5 μl, Transgen, #AQ131) and 0.95 μM reverse/forward primer mix (4 μl) into a 384-well PCR plate in triplicate, either manually or using an automated pipetting robot. The complete primer panel included the target genes and the housekeeping gene (RPL13A). In the analysis, also included a sample of undifferentiated hPSCs to determine the gene expression levels relative to the expression in hPSCs. • 8. Analyze the samples by running a quantitative PCR on the LightCycler 480 instrument using a 40× cycle two-step protocol with a 60° C., 60 sec annealing/elongation step and a 95° C., 30 sec denaturation step. The average CT values from the three technical replicates were used for calculations of relative gene expression using the ΔΔCT method. For each gene, calculate the FC of the differentiated samples relative to the undifferentiated control sample using the housekeeping gene for normalization. Next, calculate the average of the FC values on the basis of the housekeeping gene. (3) Immunocytochemical Analysis • 1. Cell fixation: Remove the medium from the cells and wash with PBS. Add 4% (wt/vol) PFA (e.g., 200 μl to a well in a 48-well plate) and incubate at room temperature (RT) for 15 min. after incubation, wash the cells three times in PBS. • 2. Blocking: Remove PBS from the wells and add blocking solution to the cells, add enough volume to cover the cells. Leave the cells in blocking solution for 1 h at RT. • 3. Primary antibodies incubation: Remove the blocking solution from the cells and add the primary antibody solutions (˜100 μl/cm^2). […]

imDAPs [3] = experiment: imDAP maturation: cell morphology, adhesion and cell yield; conditions: Example 13; maturation media supplemented with 10 μM Y27632; day 7; FIG. 8A
Description: imDAPs were produced according to the method described in CN201910169525.0, and expanded as described in Example 10. […] MM-H used in Example 11 contained the following components: Neurobasal™ medium, 1% (v/v) Glutamax, 0.5 mM Db-cAMP sodium salt, 200 μM ascorbic acid, 20 ng/ml BDNF, 20 ng/ml GDNF, 1 ng/ml TGF-β3, 10 μM DAPT, HhPLT (0.5%, 1%, 2%). MM-B used in Example 11 contained the following components: Neurobasal, 1% (v/v) Glutamax, 0.5 mM Db-cAMP sodium salt, 200 μM ascorbic acid, 20 ng/ml BDNF, 20 ng/ml GDNF, 1 ng/ml TGF-β3, 10 μM DAPT, 2% (v/v) B27 (50×) (as control). The above HhPLT was produced from hPLT as follows. The hPLT was centrifuged at 3000 g for 30 min at 4° C. to obtain the supernatant, which was heated to 56° C. for 30 min. The suspension was finally cooled down to 4° C. at least 5 min, and spun at 3000 g for 30 min at 4° C. to obtain the HhPLT supernatant. Aliquots were prepared and stored at −80° C. until use. The above Medium was changed every 3rd day. On day 7, the imDAPs at early maturation stage were dissociated enzymatically with 1× TrypLE, centrifuged at 250 g for 5 minutes.
imDAPs were produced according to the method described in CN201910169525.0, and expanded as described in Example 10. […] Medium was changed every 3rd day. On day 7, the imDAPs at early maturation stage were dissociated enzymatically with 1× TrypLE, centrifuged at 250 g for 5 minutes. Cells were collected for RT-qPCR analysis of EN1, LMX1A, FOXA2, NURR1, SOX6 and TH gene expression. The maturation medium used in Example 12 contained the following components: Neurobasal™ medium, 1% (v/v) Glutamax, 1% (v/v) HhPLT, 0.5 mM Db-cAMP sodium salt, 200 μM ascorbic acid, 20 ng/mL BDNF, 20 ng/mL GDNF, 1 ng/mL TGF-β3, 10 μM DAPT.
imDAPs were produced according to the method described in CN201910169525.0, and expanded as described in Example 10. […] Cells were collected and counted by Vi-cell cytometer. The cells were analyzed by RT-qPCR for EN1, LMX1A, FOXA2, NURR1, SOX6 and TH gene expression. […]

| SMILES | mDAP marker expression (EN1, LMX1A, FOXA2) (imDAPs [1]) | percentage of Foxa2-expressing cells (imDAPs [2]; 10 μM Y27632 vs 5 μM Blebbistatin, VTN-coated, Day 6, FIG. 2) | percentage of Foxa2-expressing cells during passages (imDAPs [2]; medium with Y27632) | cell adhesion and growth (imDAPs [3]) |
| --- | --- | --- | --- | --- |
| Cc1cnc(-c2cnc(NCCNc3ccc(C#N)cn3)nc2-c2ccc(Cl)cc2Cl)[nH]1 [CHIR99021] | allowed better maintenance of mDAP marker expression |  |  |  |
| C[C@@H](N)[C@H]1CC[C@H](C(=O)Nc2ccncc2)CC1 [Y27632, (R)-(+)-trans-4-(1-aminoethyl)-N-(4-pyridyl) cyclohexanecarboxamide dihydrochloride] |  | capable of improving the percentage of Foxa2-expressing cells than Blebbistatin | still decreased during passages | could promote cell adhesion at a certain degree |
